# Reference: article PMC8617031, “Development of a BCL-xL and BCL-2 dual degrader with improved anti-leukemic activity,” (Nature Communications, 2021)
# Where “and” joins values, the source holds several entries; their conditions need not be identical. Equal values may be shown once.
# Assays:
# [1] = target: T1, BCL-xL/PROTAC/VHL-ELOC-ELOB (VCB) ternary complex (Homo sapiens, UniProt P40337+Q07817); assay: AlphaLISA ternary complex formation, cell-free, BCL-xL; assay type: binding
# T1 construct: pGEX-6P-1-VHL(54-213) (pDL2200) was constructed through Gibson assembly method; made in house; host or cells: bacterial culture (LB broth, IPTG induction)
# Procedure: (§1) AlphaLISA assay was used to evaluate the in vitro ternary complex formation between target proteins (BCL-xL or BCL-2), PROTAC and E3 ligase (VCB complex). In each well, 5 nM His-tagged BCL-xL or BCL-2 proteins and 5 nM GST-VCB complex was incubated with varying concentrations of compounds in fourfold serial dilutions, to a final volume of 40 µl in a 96-well PCR plate. After incubation at room temperature for 30 min, 5 µl alpha glutathione-donor beads (Cat. No. 6765300, PerkinElmer) were added to each well (20 µg/ml final concentration) and incubated for another 15 min. Thereafter, 5 µL 6× His-acceptor beads were added to each well (20 µg/ml final concentration) and incubated for an additional 45 min at room temperature. Thereafter, 17 µl of each sample was transferred in adjacent wells of a 384-well proxy plate, and the plate was scanned using the Alpha program on Biotek’s Synergy Neo2 multimode plate reader. The data were expressed as average AlphaLISA signal and plotted against different concentrations of compounds using GraphPad Prism 9 software.
# [2] = target: T2, BCL-2/PROTAC/VCB ternary complex (Homo sapiens, UniProt P10415+P40337); assay: AlphaLISA ternary complex formation, cell-free, BCL-2; assay type: binding; details: for Alpha (Alpha Endpoint read, Bcl-2 ternary complex formation): raw plate signal, duplicate wells; for AlphaLISA signal, BCL-2/PROTAC/VCB: Fig. 2d raw Alpha reads
# T2 construct: pGEX-6P-1-VHL(54-213) (pDL2200) was constructed through Gibson assembly method; made in house; host or cells: bacterial culture (LB broth, IPTG induction)
# Procedure: as §1
# T2 sequence (P10415 1-211 limits assumed): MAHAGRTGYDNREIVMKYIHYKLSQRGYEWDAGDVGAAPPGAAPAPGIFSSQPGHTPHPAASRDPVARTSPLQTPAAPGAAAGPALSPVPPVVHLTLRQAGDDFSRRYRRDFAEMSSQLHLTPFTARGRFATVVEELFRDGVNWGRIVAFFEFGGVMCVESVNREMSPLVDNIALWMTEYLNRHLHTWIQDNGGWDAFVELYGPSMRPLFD
# T2 sequence (P40337 54-213 limits assumed): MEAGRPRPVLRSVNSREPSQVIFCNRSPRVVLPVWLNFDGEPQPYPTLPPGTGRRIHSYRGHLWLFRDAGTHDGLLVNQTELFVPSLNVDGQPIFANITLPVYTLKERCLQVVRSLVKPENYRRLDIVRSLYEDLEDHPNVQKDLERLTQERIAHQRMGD
# T2 sequence (Q15369 17-112 partner limits assumed): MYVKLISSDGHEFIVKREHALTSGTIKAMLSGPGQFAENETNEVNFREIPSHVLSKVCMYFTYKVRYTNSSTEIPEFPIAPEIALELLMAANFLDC
# T2 sequence (Q15370 whole entry partner): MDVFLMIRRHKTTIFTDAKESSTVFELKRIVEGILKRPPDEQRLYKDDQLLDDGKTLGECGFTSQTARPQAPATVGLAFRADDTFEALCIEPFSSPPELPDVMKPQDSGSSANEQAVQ
# T1 sequence (Q07817 1-212 limits assumed): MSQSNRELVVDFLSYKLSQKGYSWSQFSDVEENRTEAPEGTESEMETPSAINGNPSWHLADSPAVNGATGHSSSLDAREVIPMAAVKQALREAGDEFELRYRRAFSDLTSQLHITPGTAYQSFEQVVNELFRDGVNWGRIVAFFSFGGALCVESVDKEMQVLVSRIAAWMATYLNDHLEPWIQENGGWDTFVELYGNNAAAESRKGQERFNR
# T1 sequence (P40337 54-213 limits assumed): as the sequence (P40337 54-213 limits assumed) above
# T1 sequence (Q15369 17-112 partner limits assumed): as the sequence (Q15369 17-112 partner limits assumed) above
# T1 sequence (Q15370 whole entry partner): as the sequence (Q15370 whole entry partner) above
smiles,measurement,setting,value
Cc1ncsc1-c1ccc([C@H](C)NC(=O)[C@@H]2C[C@@H](O)CN2C(=O)[C@@H](NC(=O)CCCCCCC(=O)N2CCN(C[C@@]3(C)CCC(c4ccc(Cl)cc4)=C(CN4CCN(c5ccc(C(=O)NS(=O)(=O)c6ccc(N[C@H](CCN7CCOCC7)CSc7ccccc7)c(S(=O)(=O)C(F)(F)F)c6)cc5)CC4)C3)CC2)C(C)(C)C)cc1 [753a],"AlphaLISA signal, BCL-xL/PROTAC/VCB","[1]; compound 0.19 nM, Fig. 3e raw Alpha reads",27453 and 33756
same,"AlphaLISA signal, BCL-xL/PROTAC/VCB","[1]; compound 3.05 nM, Fig. 3e raw Alpha reads",365306 and 327240
same,"AlphaLISA signal, BCL-xL/PROTAC/VCB","[1]; compound 12.21 nM, Fig. 3e raw Alpha reads",971358 and 937064
same,"AlphaLISA signal, BCL-xL/PROTAC/VCB","[1]; compound 48.83 nM, Fig. 3e raw Alpha reads",1567841 and 1437893
same,"AlphaLISA signal, BCL-xL/PROTAC/VCB","[1]; compound 195.31 nM, Fig. 3e raw Alpha reads",1256006 and 1243530
same,"AlphaLISA signal, BCL-xL/PROTAC/VCB","[1]; compound 781.25 nM, Fig. 3e raw Alpha reads",553159 and 551116
same,"AlphaLISA signal, BCL-xL/PROTAC/VCB","[1]; compound 3125 nM, Fig. 3e raw Alpha reads",187859 and 162857
same,"AlphaLISA signal, BCL-xL/PROTAC/VCB","[1]; compound 12500 nM, Fig. 3e raw Alpha reads",42241 and 44787
same,"AlphaLISA signal, BCL-xL/PROTAC/VCB","[1]; compound 50000 nM, Fig. 3e raw Alpha reads, 2 technical replicates",28218 and 24731
same,"Alpha (Alpha Endpoint read, Bcl-2 ternary complex formation)",[2]; Conc. 0.0762939 nM,50534 and 53139
same,"Alpha (Alpha Endpoint read, Bcl-2 ternary complex formation)",[2]; Conc. 0.305176 nM,145058 and 154080
same,"Alpha (Alpha Endpoint read, Bcl-2 ternary complex formation)",[2]; Conc. 1.2207 nM,205372 and 217088
same,"Alpha (Alpha Endpoint read, Bcl-2 ternary complex formation)",[2]; Conc. 4.88281 nM,773602 and 780039
same,"Alpha (Alpha Endpoint read, Bcl-2 ternary complex formation)",[2]; Conc. 19.5312 nM,1990534 and 2015902
same,"Alpha (Alpha Endpoint read, Bcl-2 ternary complex formation)",[2]; Conc. 78.125 nM,2343633 and 2509831
same,"Alpha (Alpha Endpoint read, Bcl-2 ternary complex formation)",[2]; Conc. 312.5 nM,1692897 and 1765154
same,"Alpha (Alpha Endpoint read, Bcl-2 ternary complex formation)",[2]; Conc. 1250 nM,434318 and 434578
same,"Alpha (Alpha Endpoint read, Bcl-2 ternary complex formation)",[2]; Conc. 5000 nM,40362 and 44856
same,"Alpha (Alpha Endpoint read, Bcl-2 ternary complex formation)",[2]; Conc. 20000 nM,14264 and 11638
Cc1ncsc1-c1ccc([C@H](C)NC(=O)[C@@H]2C[C@@H](O)CN2C(=O)[C@@H](NC(=O)CCCCCC(=O)N2CCN(CC3(C)CCC(c4ccc(Cl)cc4)=C(CN4CCN(c5ccc(C(=O)NS(=O)(=O)c6ccc(N[C@H](CCN7CCOCC7)CSc7ccccc7)c(S(=O)(=O)C(F)(F)F)c6)cc5)CC4)C3)CC2)C(C)(C)C)cc1 (stereo partly drawn) [PPC7],in vitro ternary complex formation with BCL-xL (in words),"[1]; AlphaLISA, cell-free, Fig. 2c, 3e",stronger ternary complexes
same,"AlphaLISA signal, BCL-xL/PROTAC/VCB","[1]; compound 0.191 nM, Fig. 2c raw Alpha reads",16342 and 14008
same,"AlphaLISA signal, BCL-xL/PROTAC/VCB","[1]; compound 0.763 nM, Fig. 2c raw Alpha reads",13825 and 16199
same,"AlphaLISA signal, BCL-xL/PROTAC/VCB","[1]; compound 3.052 nM, Fig. 2c raw Alpha reads",18964 and 20836
same,"AlphaLISA signal, BCL-xL/PROTAC/VCB","[1]; compound 12.207 nM, Fig. 2c raw Alpha reads",75292 and 75299
same,"AlphaLISA signal, BCL-xL/PROTAC/VCB","[1]; compound 48.828 nM, Fig. 2c raw Alpha reads",594562 and 681817
same,"AlphaLISA signal, BCL-xL/PROTAC/VCB","[1]; compound 195.31 nM, Fig. 2c raw Alpha reads",1206651 and 1333081
same,"AlphaLISA signal, BCL-xL/PROTAC/VCB","[1]; compound 781.25 nM, Fig. 2c raw Alpha reads",1103207 and 1035637
same,"AlphaLISA signal, BCL-xL/PROTAC/VCB","[1]; compound 3125 nM, Fig. 2c raw Alpha reads",530944 and 584971
same,"AlphaLISA signal, BCL-xL/PROTAC/VCB","[1]; compound 12500 nM, Fig. 2c raw Alpha reads",158302 and 141290
same,"AlphaLISA signal, BCL-xL/PROTAC/VCB","[1]; compound 50000 nM, Fig. 2c raw Alpha reads",39339 and 47417
same,"AlphaLISA signal, BCL-xL/PROTAC/VCB","[1]; compound 200000 nM, Fig. 2c raw Alpha reads, 2 technical replicates",23853 and 20524
same,in vitro ternary complex formation with BCL-2 (in words),"[2]; AlphaLISA, cell-free, Fig. 2d, 3f",stronger ternary complexes
same,"AlphaLISA signal, BCL-2/PROTAC/VCB",[2]; compound 0.763 nM,20141 and 15109
same,"AlphaLISA signal, BCL-2/PROTAC/VCB",[2]; compound 3.052 nM,29796 and 29041
same,"AlphaLISA signal, BCL-2/PROTAC/VCB",[2]; compound 12.207 nM,146984 and 135341
same,"AlphaLISA signal, BCL-2/PROTAC/VCB",[2]; compound 48.828 nM,1032585 and 1008497
same,"AlphaLISA signal, BCL-2/PROTAC/VCB",[2]; compound 195.31 nM,1592216 and 1719187
same,"AlphaLISA signal, BCL-2/PROTAC/VCB",[2]; compound 781.25 nM,1513830 and 1470142
same,"AlphaLISA signal, BCL-2/PROTAC/VCB",[2]; compound 3125 nM,403994 and 403317
same,"AlphaLISA signal, BCL-2/PROTAC/VCB",[2]; compound 12500 nM,43692 and 35758
same,"AlphaLISA signal, BCL-2/PROTAC/VCB",[2]; compound 50000 nM,12115 and 13570
same,"AlphaLISA signal, BCL-2/PROTAC/VCB","[2]; compound 200000 nM, 2 technical replicates",14257 and 11084
